We go through five molecules from patent US9745274B2, “Compound, organic cation transporter 3 detection agent, and organic cation transporter 3 activity inhibitor” (SHIN NIPPON BIOMEDICAL LABORATORIES, LTD., priority 2013, dated 2017).

Assay [1] has as its target T1, human organic cation transporter 3 (hOCT3) (Homo sapiens, UniProt O75751).
T1 construct: expressed in transfected cells; host or cells: HEK293
T1 sequence (O75751 1-556): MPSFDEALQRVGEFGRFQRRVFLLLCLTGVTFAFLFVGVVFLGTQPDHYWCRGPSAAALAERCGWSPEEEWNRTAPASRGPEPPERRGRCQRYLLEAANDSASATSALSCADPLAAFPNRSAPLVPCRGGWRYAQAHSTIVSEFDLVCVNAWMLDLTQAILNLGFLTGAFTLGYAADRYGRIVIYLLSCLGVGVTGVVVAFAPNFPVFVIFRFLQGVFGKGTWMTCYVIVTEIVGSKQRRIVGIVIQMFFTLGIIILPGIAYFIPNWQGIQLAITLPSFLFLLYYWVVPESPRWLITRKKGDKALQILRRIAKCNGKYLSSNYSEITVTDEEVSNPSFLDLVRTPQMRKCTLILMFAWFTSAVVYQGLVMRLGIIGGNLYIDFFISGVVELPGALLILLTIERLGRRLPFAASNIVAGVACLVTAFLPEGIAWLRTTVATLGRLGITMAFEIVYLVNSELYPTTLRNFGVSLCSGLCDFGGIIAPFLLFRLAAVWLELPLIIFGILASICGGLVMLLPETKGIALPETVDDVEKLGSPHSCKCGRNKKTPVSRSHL
Description: Histamine incorporation experiment in HEK293 cells expressing hOCT3 (OCT3 inhibition activity). Particulars: control curve; for IC80: HEK293. It counts as cell-based.

The conditions of assay [2]: various diagnostic methods in clinical trials, WO 01/93863; cited from earlier work.
The next assay has as its target T2, OCT3 (Homo sapiens, UniProt O75751).
T2 sequence (O75751 1-556): T1 sequence (O75751 1-556)
The settings on record: Sata et al., J Pharmacol Exp Ther. 2005, cited from earlier work.

In assay [3] the target is T1, human organic cation transporter 3 (hOCT3). As to the kind of experiment: Histamine incorporation experiment in HEK293 cells expressing hOCT3 (OCT3 inhibition activity). It counts as cell-based. Particulars: for remaining activity at 10 µM / remaining activity at 30 µM: HEK293, 1 min, no inhibitor = 100%, read-out: Histamine Incorporation Rate to Control (%); for remaining activity at 10 µM / inhibition at 10 µM: Compound Concentration 10 μM; for inhibition at 10 µM / inhibition at 30 µM: HEK293, 100% minus histamine incorporation rate; for remaining activity at 30 µM / inhibition at 30 µM: Compound Concentration 30 μM; for remaining activity at 30 µM: [3H]histamine 100 nM, 1 minute. Here is the method:
In order to measure an activity that inhibits OCT3 from incorporating a substrate (OCT3 inhibition activity) for each compound, histamine incorporation experiments as described below were performed.
Histamine incorporation experiments were performed in accordance with a method disclosed in Br J Pharmacol. 2002; 136(6): 829-836. In the experiments, HEK293 cells were used. The HEK293 cell is a human embryonal renal cell strain expressing human organic cation transporter 3 (hOCT3). The HEK 293 cells were inoculated onto 24-well plates at 1.5×10^5 cells/well, and were cultivated overnight in a carbon dioxide incubator. Test substances were dissolved in 100% DMSO solution and then dissolved in HBSS-HEPES solution (buffer solution prepared by dissolving 9.7 g Hank's Balanced Salt, 1.4% sodium bicarbonate 25 mL, and 1M HEPES 25 mL in 940 mL ultra pure water, and by adjusting to pH7.4 with 1M sodium hydroxide). After removing culture media for cell culture, pretreatment was performed for 5 minutes with 1 mL HBSS-HEPES solution. Then, the test substance and [3H]histamine (final concentration 100 nM) were added to the cells and reacted for 1 minute at room temperature. After the reaction was completed, the reaction was stopped by ice-cooled HBSS-HEPES solution, extracellular fluid was aspirated by an aspirator, and then the cells were washed twice with HBSS-HEPES. After washing, the cells were dissolved in 0.5M sodium hydroxide solution. The amount of histamine in the cells was found by measuring a radioactivity in a cell lysis solution by a liquid scintillation counter. Protein content in the cells was measured by Lowry method (J Biol Chem. 1951; 193(1): 265-75) by using the cell lysis solution, and translated into histamine incorporation amount per protein content for each experiment. A histamine incorporation rate (%) in the presence of 30 μM of the test substance was calculated by regarding a histamine incorporation amount in a case of no incorporation inhibitor as 100% (control) of histamine incorporation rate. A value (%) obtained by subtracting the histamine incorporation rate from 100(%) was calculated as an OCT3 inhibition rate (%).
Note that a histamine incorporation rate (%) in the presence of 10 μM of the test substance was calculated by regarding a histamine incorporation amount in a case of no incorporation inhibitor as 100% (control) of histamine incorporation rate. A value (%) obtained by subtracting the histamine incorporation rate from 100(%) was calculated as an OCT3 inhibition rate (%). […]

The next assay deals with Male ddY-strain mice. Description: Forced swimming test (akinesis time). Particulars: low dose administered independently: imipramine 4 mg/kg or OCT3 inhibitor 0.25 μl/hr. It counts as in vivo, mouse.

Like-named read-outs stand apart in the source and are kept apart here.

Description for Male ddY-strain mice: In the forced swimming test, forced swimming is loaded on a mouse or rat as a test animal in a test tank from which the mouse or rat cannot escape. Then, after an escape behavior of the test animal, an akinesis (a state in which the test animal is floating with only its face out over the surface of the water and without moving legs) is confirmed. When the test animal is put in the test tank again after 24 or more hours later, the akinesis is expressed earlier than the first test. Duration of the akinesis within a predetermined time period (generally about 5 minutes) is reproduced relatively accurately.
Specifically, a test is performed as follows.
Male ddY-strain mice (Japan SLC, Inc.) having body weights of 28 to 33 g are used for an experiment. […] In the first forced swimming test, all of the laboratory mice are made to swim in a glass cylinder (diameter 15.5 cm, depth 17 cm, depth of water 12 cm, temperature of water 25° C.) for 300 seconds, the akinesis time are measured, and the mice are divided into experimental groups (OCT3 inhibitor administration group, positive control group, and negative control group) so that average values of these groups are almost identical. […] After one week from the injection, the mice are made to swim in the cylinder again for 300 seconds, and the akinesis time is measured for each of the mice. […]

One may read the IC80 as the concentration needed for an effect of 80%. A higher IC80 goes with weaker potency. The term IC50 denotes the concentration needed to halve the response being measured. A lower IC50 goes with greater potency in that assay. What is called inhibition is the change of the read-out against control, counted positive when it falls. In assay [1], `NC(N)=Nc1nc(CSCCC(N)=NS(N)(=O)=O)cs1` [FAMOTIDINE, famotidine, reference compound] returned a concentration for an effect of 80% (IC80) of 330 µM and an IC50 of 67.6 µM. In assay [2], the antidepressant activity result is recorded as “antidepressant activity is confirmed”. The “OCT3 inhibition activity (in words)” value on OCT3 (listed as Famotidine) is “strong OCT3 inhibition activity”. For the same molecule, on OCT3 (listed as famotidine), the “OCT3 inhibition activity (in words)” value is on record as “strong OCT3 activity inhibition action”. In addition, in assay [3], the remaining activity at 10 µM was found to be 92.4% and the inhibition at 10 µM is 7.6%.

In assay [1], `NC(N)=Nc1nc(CCCC/C(N)=N/S(=O)(=O)C(F)(F)F)cs1` [SR-2065] showed an IC80 of 90 µM and an IC50 of 24 µM. In assay [3], the remaining activity at 10 µM is 72.9%, the remaining activity at 30 µM was 41.5%, the inhibition at 10 µM amounted to 27.1% and at 30 µM the inhibition was 58.5%.

For the molecule `Cc1nc(CCCCc2csc(N=C(N)N)n2)[nH]c(=O)c1CCc1ccccc1` [SR-2076], in assay [1], the concentration for an effect of 80% (IC80) was 8 µM and the IC50 is 1.9 µM. In assay [3], the remaining activity at 10 µM came to 14.8%, the remaining activity at 30 µM is 11.8%, testing at 10 µM gave an inhibition of 85.2% and the inhibition at 30 µM worked out at 88.2%.

In assay [1], `Cc1nc(CCSCc2ccnc(N=C(N)N)c2)[nH]c(=O)c1CCc1ccccc1` [SR-2219] came in with an 80% effect concentration (IC80) of 49 µM and an IC50 of 19 µM. Besides, in assay [3], the remaining activity at 10 µM is 51.5%, the remaining activity at 30 µM was determined as 22.6%, the inhibition at 10 µM was found to be 48.5% and the inhibition at 30 µM is 77.4%.

Take `CN(C)CCCN1c2ccccc2CCc2ccccc21` [imipramine]: the “average of the akinesis time” value in the assay on Male ddY-strain mice is listed as “about 200 seconds”.
